# Source: US10550144B2, “6-aryl-9-glycosylpurines and use thereof” (UNIVERZITA PALACKEHO V OLOMOUCI, priority 2014, dated 2020)
# Assays:
# [1] = test system: Triticum aestivum cv. Hereward detached leaf segments; experiment: Senescence bioassay on detached wheat leaf segments (chlorophyll retention); type: in vivo; details: for maximum effective concentration: 96 h incubation in the dark at 25° C., tested 10^−8 M to 10^−4 M
# Method: Seeds of winter wheat, Triticum aestivum cv. Hereward, were washed under running water for 24 hours and then sown on vermiculite soaked with Knop's solution. They were placed in the growth chamber at 25° C. with a 16/8 h light period at 50 μmol·m^−2·s^−1. After 7 days, the first leaf was fully developed and the second leaf had started to grow. A tip section of the first leaf, approximately 35 mm long, was removed from 5 seedlings and trimmed slightly to a combined weight of 100 mg. The basal ends of the five leaf tips were placed in the wells of a microtiter polystyrene plate containing 150 μL of the tested derivative solution each. The entire plate was inserted into a plastic box lined with paper tissues soaked in distilled water to prevent leaf sections from drying out. After 96 h incubation in the dark at 25° C., the leaves were removed and chlorophyll extracted by heating at 80° C. for 10 min in 5 mL of 80% ethanol (v/v). The sample volume was then restored to 5 mL by the addition of 80% ethanol (v/v). The absorbance of the extract was recorded at 665 nm. In addition, chlorophyll extracts from fresh leaves and leaf tips incubated in deionised water were measured. The results are means of five replicates and the entire test was repeated twice. […] The compounds to be tested were dissolved in dimethylsulfoxide (DMSO) and the solution brought up to 10^−3M with distilled water. […] The activity obtained for 10^−4 M of BAP was postulated as 100%.
# [2] = test system: Harpagophytum procumbens nodal explants; experiment: Micropropagation growth response with BAP, Harpagophytum procumbens; details: after 35 days in vitro, N = 12
# [3] = test system: Gymnosporia buxifolia shoot-tip explants; experiment: Shoot-tip necrosis in in vitro cultures of Gymnosporia buxifolia; details: after 4 weeks of culture
# [4] = test system: Dais cotinifolia shoot-tip explants; experiment: Shoot multiplication and shoot-tip necrosis in shoot cultures of Dais cotinifolia; type: in vivo; details: after 8 weeks of culture
# Method: Explants were washed thoroughly with 0.1% (v/v) of Tween® 20 for 2 min, and decontaminated with 70% ethanol for 15 sec followed by 0.2% aqueous HgCl2 for 10 min. The explants were rinsed five times with sterile distilled water. […] Each value was presented as the mean±standard error, with three replicates; each replicate consisting of 15 explants per treatment.
# [5] = test system: Amelanchier alnifolia nodal explants; experiment: Micropropagation growth response with BAP, Amelanchier alnifolia; details: after 35 days in vitro, N = 9
# [6] = 10 μM BAP alone (Treatment No. 2)
structure (smiles),measurement,setting,value
"COc1ccc(CNc2ncnc3c2ncn3[C@@H]2O[C@H](CO)[C@@H](O)[C@@H]2O)cc1OC [6-(3,4-dimethoxybenzylamino)-9-β-D-arabinofuranosylpurine]",maximum effective concentration,[1],10^−4 mol · l^−1
OC[C@H]1O[C@@H](n2cnc3c(NCc4ccco4)ncnc32)[C@@H](O)[C@@H]1O [6-furfurylamino-9-β-D-arabinofuranosylpurine],maximum effective concentration,[1],10^−4 mol · l^−1
"c1ccc(CNc2ncnc3nc[nH]c23)cc1 [BA, 6-benzylaminopurine, reference compound]",Fresh weight (g) mean SE,[2]; [6],0.3614 ± 0.05563 g
same,Shoot length (mm) mean SE,[2]; [6],19.4 ± 1.529 mm
same,Shoot no. mean SE,[2]; [6],1.5 ± 0.167
same,STN [%] (shoot-tip necrosis),[3]; 10 μM in MS medium,73.3 ± 0.20a %
same,Shoot length [cm],[3]; 10 μM in MS medium,1.92 ± 0.09b cm
same,Shoots [explant^−1] […],[3]; 10 μM in MS medium,1.0 ± 0.0a explant^−1
same,Morphogenesis in vitro,[4]; 10 μM in MS medium,Dark green shoots + SBI
same,STN [%] (shoot-tip necrosis),[4]; 10 μM in MS medium,61.5 ± 1.02a %
same,Shoot length [cm],[4]; 10 μM in MS medium,1.52 ± 0.26bc cm
same,Shoots [explant^−1] […],[4]; 10 μM in MS medium,3.4 ± 0.37a explant^−1
same,Fresh weight (g) mean SE,[5]; [6],0.319 ± 0.1255 g
same,Shoot length (mm) mean SE,[5]; [6],17.22 ± 1.770 mm
same,Shoot no. mean SE,[5]; [6],7.7 ± 2.65
"OC[C@H]1O[C@@H](n2cnc3c(NCc4ccccc4F)ncnc32)[C@@H](O)[C@@H]1O [Example 2FBAPA, 6-(2-fluorobenzylamino)-9-β-D-arabinofuranosylpurine]",Fresh weight (g) mean SE,[2]; 5 μM compound with 10 μM BAP,0.8764 ± 0.1818 g
same,Shoot length (mm) mean SE,[2]; 5 μM compound with 10 μM BAP,19.8 ± 3.2721 mm
same,Shoot no. mean SE,[2]; 5 μM compound with 10 μM BAP,1.7 ± 0.335
same,Fresh weight (g) mean SE,[2]; 10 μM compound with 10 μM BAP,0.6712 ± 0.1149 g
same,Shoot length (mm) mean SE,[2]; 10 μM compound with 10 μM BAP,23.9 ± 3.195 mm
same,Shoot no. mean SE,[2]; 10 μM compound with 10 μM BAP,2.5 ± 0.477
same,Fresh weight (g) mean SE,[2]; 20 μM compound with 10 μM BAP,0.8935 ± 0.231 g
same,Shoot length (mm) mean SE,[2]; 20 μM compound with 10 μM BAP,34.9 ± 5.608 mm
same,Shoot no. mean SE,[2]; 20 μM compound with 10 μM BAP,2.8 ± 0.291
same,Fresh weight (g) mean SE,[2]; 30 μM compound with 10 μM BAP,0.6877 ± 0.1009 g
same,Shoot length (mm) mean SE,[2]; 30 μM compound with 10 μM BAP,23.7 ± 2.937 mm
same,Shoot no. mean SE,[2]; 30 μM compound with 10 μM BAP,2.4 ± 0.267
same,STN [%] (shoot-tip necrosis),[3]; 5 μM in MS medium,66.7 ± 0.32b %
same,Shoot length [cm],[3]; 5 μM in MS medium,1.02 ± 0.15bc cm
same,Shoots [explant^−1] […],[3]; 5 μM in MS medium,1.0 ± 0.0a explant^−1
same,STN [%] (shoot-tip necrosis),[3]; 10 μM in MS medium,58.0 ± 0.40c %
same,Shoot length [cm],[3]; 10 μM in MS medium,1.82 ± 0.13b cm
same,Shoots [explant^−1] […],[3]; 10 μM in MS medium,1.0 ± 0.0a explant^−1
same,STN [%] (shoot-tip necrosis),[3]; 20 μM in MS medium,42.0 ± 1.20f %
same,Shoot length [cm],[3]; 20 μM in MS medium,3.20 ± 0.17a cm
same,Shoots [explant^−1] […],[3]; 20 μM in MS medium,1.0 ± 0.0a explant^−1
same,STN [%] (shoot-tip necrosis),[3]; 30 μM in MS medium,26.6 ± 0.37h %
same,Shoot length [cm],[3]; 30 μM in MS medium,2.98 ± 0.12a cm
same,Shoots [explant^−1] […],[3]; 30 μM in MS medium,1.0 ± 0.0a explant^−1
same,Morphogenesis in vitro,[4]; 5 μM in MS medium,Pale green shoots
same,STN [%] (shoot-tip necrosis),[4]; 5 μM in MS medium,33.3 ± 0.74e %
same,Shoot length [cm],[4]; 5 μM in MS medium,1.12 ± 0.12bc cm
same,Shoots [explant^−1] […],[4]; 5 μM in MS medium,1.0 ± 0.00c explant^−1
same,Morphogenesis in vitro,[4]; 10 μM in MS medium,Pale green shoots
same,STN [%] (shoot-tip necrosis),[4]; 10 μM in MS medium,31.5 ± 1.18ef %
same,Shoot length [cm],[4]; 10 μM in MS medium,1.54 ± 0.16bc cm
same,Shoots [explant^−1] […],[4]; 10 μM in MS medium,1.6 ± 0.24bc explant^−1
same,Morphogenesis in vitro,[4]; 20 μM in MS medium,Green shoots
same,STN [%] (shoot-tip necrosis),[4]; 20 μM in MS medium,27.7 ± 0.74g %
same,Shoot length [cm],[4]; 20 μM in MS medium,1.90 ± 0.14ab cm
same,Shoots [explant^−1] […],[4]; 20 μM in MS medium,2.0 ± 0.32b explant^−1
same,Morphogenesis in vitro,[4]; 30 μM in MS medium,Green shoots
same,STN [%] (shoot-tip necrosis),[4]; 30 μM in MS medium,20.0 ± 0.44h %
same,Shoot length [cm],[4]; 30 μM in MS medium,2.40 ± 0.27a cm
same,Shoots [explant^−1] […],[4]; 30 μM in MS medium,2.3 ± 0.37b explant^−1
same,Fresh weight (g) mean SE,[5]; 5 μM compound with 10 μM BAP,0.178 ± 0.0428 g
same,Shoot length (mm) mean SE,[5]; 5 μM compound with 10 μM BAP,14.33 ± 2.754 mm
same,Shoot no. mean SE,[5]; 5 μM compound with 10 μM BAP,7.2 ± 1.41
same,Fresh weight (g) mean SE,[5]; 10 μM compound with 10 μM BAP,0.529 ± 0.1739 g
same,Shoot length (mm) mean SE,[5]; 10 μM compound with 10 μM BAP,14.67 ± 1.291 mm
same,Shoot no. mean SE,[5]; 10 μM compound with 10 μM BAP,13.2 ± 3.44
same,Fresh weight (g) mean SE,[5]; 20 μM compound with 10 μM BAP,0.492 ± 0.0593 g
same,Shoot length (mm) mean SE,[5]; 20 μM compound with 10 μM BAP,19.33 ± 2.571 mm
same,Shoot no. mean SE,[5]; 20 μM compound with 10 μM BAP,15.4 ± 1.62
same,Fresh weight (g) mean SE,[5]; 30 μM compound with 10 μM BAP,0.584 ± 0.1564 g
same,Shoot length (mm) mean SE,[5]; 30 μM compound with 10 μM BAP,16.44 ± 2.369 mm
same,Shoot no. mean SE,[5]; 30 μM compound with 10 μM BAP,14.9 ± 2.40
OC[C@H]1O[C@@H](n2cnc3c(NCc4cccc(I)c4)ncnc32)[C@@H](O)[C@@H]1O [6-(3-iodobenzylamino)-9-β-D-arabinofuranosylpurine],maximum effective concentration,[1],10^−4 mol · l^−1
OC[C@H]1O[C@@H](n2cnc3c(NCc4ccccc4Br)ncnc32)[C@@H](O)[C@@H]1O [6-(2-bromobenzylamino)-9-β-D-arabinofuranosylpurine],maximum effective concentration,[1],10^−5 mol · l^−1
OC[C@H]1O[C@@H](n2cnc3c(NCc4ccc(Br)cc4)ncnc32)[C@@H](O)[C@@H]1O [6-(4-bromobenzylamino)-9-β-D-arabinofuranosylpurine],maximum effective concentration,[1],10^−4 mol · l^−1
OC[C@H]1O[C@@H](n2cnc3c(NCc4cccc(Br)c4)ncnc32)[C@@H](O)[C@@H]1O [6-(3-bromobenzylamino)-9-β-D-arabinofuranosylpurine],maximum effective concentration,[1],10^−4 mol · l^−1
OC[C@H]1O[C@@H](n2cnc3c(NCc4cccc(Cl)c4)ncnc32)[C@@H](O)[C@@H]1O [6-(3-chlorobenzylamino)-9-β-D-arabinofuranosylpurine],maximum effective concentration,[1],10^−4 mol · l^−1
"OC[C@H]1O[C@@H](n2cnc3c(NCc4ccc(Cl)cc4Cl)ncnc32)[C@H](O)[C@@H]1O [6-(2,4-dichlorbenzylamino)-9-riboside, reference compound]",activity (%) [10^−4 mol · l^−1 BAP = 100%],"[1]; chlorophyll content at the maximum effective concentration, 96 h in the dark",5 ± 1%
OC[C@H]1O[C@@H](n2cnc3c(NCc4cccc(F)c4)ncnc32)[C@@H](O)[C@@H]1O [6-(3-fluorobenzylamino)-9-β-D-arabinofuranosylpurine],maximum effective concentration,[1],10^−4 mol · l^−1
